According to patent US6300346A, “Indenyl hydroxamic acids, (hydroxy) ureas and urethanes for treating patients with precancerous lesions” (Cell Pathways, Inc., priority 2000, dated 2001):

How the values were obtained:
[1] = Solubility remark in the HT-29 table; type: physicochemical; conditions: printed in the IC50 column of TABLE I
[2] = tested on: HT-29 human colon carcinoma cells; assay: HT-29 tumor cell growth inhibition / cytotoxicity (Sulforhodamine B Assay); type: cell-based; conditions: 168 h, HT-29, seven days continuous exposure
Method: (§1) The compounds of this invention were assayed for their effect on the human colon carcinoma cell lines HT-29 and SW-480 obtained from ATCC (Rockville, Md.), representative of precancerous lesions to ascertain the degree of tumor growth inhibition following treatment with compounds of this invention. The cell line employed for these experiments is well characterized, and is used by the United States National Cancer Institute in their screening program for new anticancer drugs. Growth inhibition of this cell line is thought to be indicative of a benefit on precancerous lesions and neoplasms.
Tumor cell cytotoxicity was assessed using the Sulforhodamine B Assay. In this assay, HT-29 tumor cells were plated in 96-well plates and treated with drug-containing media for seven days (continuous exposure). At the end of the exposure period, the cell were fixed and stained with sulforhodamine B (a pink fluorescent dye). The dye was then solubilized, and the optical density of the resulting pink solution determined on a 96-well plate reader. The mean dye intensity of the treated wells was then divided by the mean dye intensity in the control wells (6 wells of each) to determine the effect of the drug on the cells. Dye intensity is proportional to the number of cells or amount of protein per well. The resultant "percent of control" value then represents the degree of growth inhibition caused by the drug.
For each experiment, an IC50 value was determined and used for comparative purposes. This value is equivalent to the concentration of drug needed to inhibit tumor cell growth by 50%. IC50 values were obtained graphically by connecting the mean values for each drug concentration tested. Each experiment included at least six wells per drug concentration. Concentration was plotted on a log scale on the X-axis.

[3] = tested on: SW-480 colon adenocarcinoma cells; assay: Apoptosis: DNA fragmentation assay (Cell Death Detection ELISA plus); type: cell-based; conditions: Homo sapiens, SW480, SW-480, 48 hrs; for EC50: apoptosis
Method: as §1
Apoptosis was measured based on the amount of fragmented DNA contained in cell lysates. Briefly, SW-480 colon adenocarcinoma cells were plated at a density of 10K cells/well in 180 μl to 96-well microtitre plates ("MTP"), and incubated for 24 hrs. Cells were then treated with 20 μl aliquots appropriately diluted compound, and allowed to incubate for 48 hrs.
After the incubation, samples were prepared according to the following steps. […] Samples were analyzed immediately, because storage at 4 C or […] reduces the ELISA-signals.
Samples were then processed according to a DNA fragmentation assay protocol, and dose-response curves were generated based on optical density readings. […] The assay is based on a quantitative sandwich-enzyme-immunoassay-principle using mouse monoclonal antibodies directed against DNA and histones, respectively. […]
According to the vendor, the assay works in the following fashion. […] After removal of unbound antibodies by a washing step, the amount of nucleosomes is quantified by the POD retained in the immunocomplex. POD is determined photometrically with ABTS® (2,2'-Azino-di[3-ethylbenzthiazolin-sulfonat])* as substrate.
Fold stimulation (FS=ODmax/ODveh), an indicator of apoptotic response, was determined for each compound data analysis software, or by estimates based on the effective concentration range of each compound (ECR=min. effective dose-min. dose to peak effect).

polyps = conditions: when the patient take the drug; cited from earlier work
[4] = sulfoxide itself, believed; cited from earlier work
prostaglandin synthesis = conditions: acknowledged / regarded; cited from earlier work

For CC1=C(CNC(=O)NC(C)C)c2cc(F)ccc2/C1=C\c1ccc(S(C)(=O)=O)cc1 [Example 21, (Z)-N-{[5-Fluoro-2-methyl-1-(p-methylsulfonylbenzylidene)inden-3-yl]-methyl}-N'-isopropyl urea], the “solubility (reason for IC50 N/A)” value [1] was “not very soluble”.
CC1=C(CNC(=O)NCCCN(C)C)c2cc(F)ccc2/C1=C\c1ccc(S(C)(=O)=O)cc1 [Example 22, (Z)-N-{[5-Fluoro-2-methyl-1-(p-methylsulfonyl-benzylidene)-inden-3-yl]-methyl}-N'-dimethylaminopropyl urea] gave an IC50 [2] of 4.4 to 5.4 µM and an EC50 [3] of 75 µM.
CC1=C(CNC(=O)NCc2ccccc2)c2cc(F)ccc2/C1=C\c1ccc(S(C)(=O)=O)cc1 [Example 23, (Z)-N-{[5-Fluoro-2-methyl-1-(p-methylsulfonyl-benzylidene)-inden-3-yl]-methyl}-N'-benzyl urea] gave an IC50 [2] of 1.6 to 3.2 µM.
With CC1=C(CNC(=O)NCC(N)=O)c2cc(F)ccc2/C1=C\c1ccc(S(C)(=O)=O)cc1 [Example 24, (Z)-N-{[5-Fluoro-2-methyl-1-(p-methylsulfonyl-benzylidene)-inden-3-yl]-methyl}-N'-glycinamide urea] the “solubility (reason for IC50 N/A)” value [1] was “not very soluble”.
Compound CC1=C(CNC(=O)OC(C)C)c2cc(F)ccc2/C1=C\c1ccc(S(C)(=O)=O)cc1 [Example 25, (Z)-N-{[5-Fluoro-2-methyl-1-(p-methylsulfonyl-benzylidene)-inden-3-yl]-methyl}-O-isopropyl urethane] has an IC50 [2] of 3.2 to 4 µM.
Work on COC(=O)NCC1=C(C)/C(=C/c2ccc(S(C)(=O)=O)cc2)c2ccc(F)cc21 [Example 26, (Z)-N-{[5-Fluoro-2-methyl-1-(p-methylsulfonyl-benzylidene)-inden-3-yl]-methyl}-O-methyl urethane] yielded an IC50 [2] of 4.5 to 8 µM, a maximal fold induction ([3]; FS=ODmax/ODveh, read-out: Fold Stimulation) of 5 to 6.8 and an EC50 [3] of 250 µM.
With CCOC(=O)NCC1=C(C)/C(=C/c2ccc(S(C)(=O)=O)cc2)c2ccc(F)cc21 [Example 27, (Z)-N-{[5-Fluoro-2-methyl-1-(p-methylsulfonyl-benzylidene)-inden-3-yl]-methyl}-O-ethyl urethane] the IC50 [2] was 4.1 µM.
Work on COCCOC(=O)NCC1=C(C)/C(=C/c2ccc(S(C)(=O)=O)cc2)c2ccc(F)cc21 [Example 28, (Z)-N-{[5-Fluoro-2-methyl-1-(p-methylsulfonyl-benzylidene)-inden-3-yl]-methyl}-O-methoxyethyl urethane] yielded an IC50 [2] of 7.1 to 11 µM.
For CC1=C(CC(=O)O)c2cc(F)ccc2/C1=C\c1ccc([S+](C)[O-])cc1 (stereo not drawn) [Sulindac, (Z)-5-fluoro-2-methyl-1-(4-methylsulfinylbenzylidene)inden-3-ylacetic acid], the effect on polyps (polyps) is listed as “Polyps virtually disappear” and the “activity as an anti-arthritic agent” value [4] is listed as “inactive”.
In the case of CSc1ccc(/C=C2/C(C)=C(CC(=O)O)c3cc(F)ccc32)cc1 [sulfide], the “activity as a prostaglandin (synthesis) inhibitor” value (prostaglandin synthesis) is listed as “active moiety as a prostaglandin inhibitor”.
In the case of CC1=C(CC(=O)O)c2cc(F)ccc2/C1=C\c1ccc(S(C)(=O)=O)cc1 [sulfone], the “activity as a prostaglandin (synthesis) inhibitor” value (prostaglandin synthesis) is listed as “inactive”.
